Assay results as given in ChEMBL document CHEMBL1148552, “Pulvinones as bacterial cell wall biosynthesis inhibitors” (Bioorg Med Chem Lett, 2006).
In brackets after ≈: the same amount, converted by molar mass.

Assays:
Streptococcus pneumoniae = assay: Antibacterial activity against penicillin resistant Streptococcus pneumoniae; type: functional; settings: GC 1894
Staphylococcus aureus [1] = assay: Antibacterial activity against Staphylococcus aureus; type: functional; settings: GC 4543
[2] = target: T1, UDP-N-acetylmuramate--L-alanine ligase (Staphylococcus aureus, UniProt O31211); assay: Inhibitory activity against MurC in Staphylococcus aureus
T1 sequence (O31211 whole entry): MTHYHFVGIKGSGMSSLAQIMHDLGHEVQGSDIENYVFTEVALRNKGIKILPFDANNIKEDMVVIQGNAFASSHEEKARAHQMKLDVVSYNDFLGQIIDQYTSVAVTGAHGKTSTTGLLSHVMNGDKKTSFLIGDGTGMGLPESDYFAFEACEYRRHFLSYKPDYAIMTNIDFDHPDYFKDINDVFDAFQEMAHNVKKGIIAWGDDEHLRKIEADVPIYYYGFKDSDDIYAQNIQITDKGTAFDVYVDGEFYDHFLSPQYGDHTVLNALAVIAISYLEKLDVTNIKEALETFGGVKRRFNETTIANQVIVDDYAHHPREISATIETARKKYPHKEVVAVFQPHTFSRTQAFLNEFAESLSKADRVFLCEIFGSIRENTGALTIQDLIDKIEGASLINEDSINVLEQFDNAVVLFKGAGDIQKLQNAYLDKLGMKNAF

Staphylococcus aureus [3] = assay: Antibacterial activity against methicillin resistant Staphylococcus aureus; type: functional; settings: GC 1131
[4] = target: T2, UDP-N-acetylglucosamine 1-carboxyvinyltransferase 1 (Staphylococcus aureus subsp. aureus N315, UniProt P84058); assay: Inhibitory activity against MurA in Staphylococcus aureus
T2 sequence (P84058 whole entry): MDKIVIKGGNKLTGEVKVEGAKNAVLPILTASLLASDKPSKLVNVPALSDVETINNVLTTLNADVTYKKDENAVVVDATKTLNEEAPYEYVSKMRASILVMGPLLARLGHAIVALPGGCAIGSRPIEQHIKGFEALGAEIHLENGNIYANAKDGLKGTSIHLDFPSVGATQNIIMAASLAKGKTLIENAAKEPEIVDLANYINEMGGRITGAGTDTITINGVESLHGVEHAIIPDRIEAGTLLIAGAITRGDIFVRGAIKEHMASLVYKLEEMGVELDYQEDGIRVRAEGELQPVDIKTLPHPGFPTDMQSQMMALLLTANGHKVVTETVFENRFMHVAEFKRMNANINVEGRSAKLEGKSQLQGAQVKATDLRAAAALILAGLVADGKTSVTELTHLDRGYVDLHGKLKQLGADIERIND

[5] = target: T3, UDP-N-acetylmuramoylalanine--D-glutamate ligase (Staphylococcus aureus, UniProt P0A091); assay: Inhibitory activity against MurD in Staphylococcus aureus
T3 sequence (P0A091 whole entry): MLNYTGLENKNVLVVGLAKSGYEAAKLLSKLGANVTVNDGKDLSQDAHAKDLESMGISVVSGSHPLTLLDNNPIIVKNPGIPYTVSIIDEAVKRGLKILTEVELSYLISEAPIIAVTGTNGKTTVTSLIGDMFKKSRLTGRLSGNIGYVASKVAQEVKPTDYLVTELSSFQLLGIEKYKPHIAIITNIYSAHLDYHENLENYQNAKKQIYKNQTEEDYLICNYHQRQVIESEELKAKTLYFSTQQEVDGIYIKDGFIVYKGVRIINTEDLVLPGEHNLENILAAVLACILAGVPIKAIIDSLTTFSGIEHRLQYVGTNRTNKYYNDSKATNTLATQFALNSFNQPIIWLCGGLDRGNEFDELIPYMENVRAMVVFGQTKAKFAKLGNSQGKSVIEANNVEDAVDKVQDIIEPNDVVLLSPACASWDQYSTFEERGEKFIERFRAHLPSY

[6] = target: T4, UDP-N-acetylenolpyruvoylglucosamine reductase (Escherichia coli K-12, UniProt P08373); assay: Inhibitory activity against MurB in Escherichia coli
T4 sequence (P08373 whole entry): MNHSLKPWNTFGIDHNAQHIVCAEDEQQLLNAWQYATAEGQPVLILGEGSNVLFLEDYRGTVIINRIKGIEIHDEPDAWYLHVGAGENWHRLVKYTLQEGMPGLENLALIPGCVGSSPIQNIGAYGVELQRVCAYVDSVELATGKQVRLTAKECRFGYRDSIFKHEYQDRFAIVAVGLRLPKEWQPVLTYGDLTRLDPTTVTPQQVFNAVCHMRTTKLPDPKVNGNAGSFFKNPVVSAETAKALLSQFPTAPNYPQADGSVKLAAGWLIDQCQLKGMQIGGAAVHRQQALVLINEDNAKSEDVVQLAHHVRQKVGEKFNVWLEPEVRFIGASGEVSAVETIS

Enterococcus faecalis [7] = assay: Antibacterial activity against Enterococcus faecalis; type: functional; settings: GC 4555
Enterococcus faecalis [8] = assay: Antibacterial activity against vancomycin resistant Enterococcus faecalis; type: functional; settings: GC 2242
[9] = target: UDP-N-acetylglucosamine 1-carboxyvinyltransferase (Escherichia coli K-12, UniProt P0A749); assay: Inhibitory activity against MurA in Escherichia coli
Chain of UDP-N-acetylglucosamine 1-carboxyvinyltransferase (P0A749 whole entry): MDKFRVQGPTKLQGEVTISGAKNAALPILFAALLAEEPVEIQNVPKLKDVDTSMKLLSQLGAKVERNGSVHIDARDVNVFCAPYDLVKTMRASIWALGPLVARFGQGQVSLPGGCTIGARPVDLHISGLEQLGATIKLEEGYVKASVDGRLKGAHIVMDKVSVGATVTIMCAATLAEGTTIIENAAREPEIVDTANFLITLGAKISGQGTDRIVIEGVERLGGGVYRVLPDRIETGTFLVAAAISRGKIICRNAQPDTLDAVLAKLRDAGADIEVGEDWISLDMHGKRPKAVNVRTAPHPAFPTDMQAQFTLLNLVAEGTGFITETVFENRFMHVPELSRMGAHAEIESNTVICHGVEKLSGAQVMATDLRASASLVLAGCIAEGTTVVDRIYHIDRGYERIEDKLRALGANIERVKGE

Row | SMILES | MIC (Streptococcus pneumoniae) [µg/mL] | MIC (Staphylococcus aureus [1]) [µg/mL] | IC50 [2] [µM] | MIC (Staphylococcus aureus [3]) [µg/mL] | IC50 [4] [µM] | IC50 [5] [µM] | IC50 [6] [µM] | MIC (Enterococcus faecalis [7]) [µg/mL] | MIC (Enterococcus faecalis [8]) [µg/mL] | IC50 [9] [µM]
1 | Cc1cc(/C=C2\OC(O)=C(c3cc(Cl)cc(Cl)c3)C2=O)ccc1-c1ccccc1C(F)(F)F | 0.5 (≈ 1.02 µM) | 0.5 (≈ 1.02 µM) | > 50.9 | 0.5 (≈ 1.02 µM) | 4.07 | 48.9 | 6.11 | 2 (≈ 4.07 µM) | 1 (≈ 2.04 µM) | 
2 | O=C1O/C(=C\c2cc(C(F)(F)F)ccc2Cl)C(O)=C1c1ccc(N2CCOCC2)c(F)c1 | 16 (≈ 34.1 µM) | 128 (≈ 272 µM) | > 53.2 | 64 (≈ 136 µM) |  | > 53.2 | 21.3 | 128 (≈ 272 µM) | 128 (≈ 272 µM) | > 53.2
